Like-named read-outs stand apart in the source and are kept apart here.
How the values were obtained:
HIV-TAT [1] = assay: Anti-HIV-TAT transfection assay (SeAP under HIV-LTR vs RSV-LTR in COS cells); assay type: cell-based; settings: 1-50 μM; HIV-LTR/SeAP relative to RSV-LTR/SeAP; added 24 hours post transfection; average of at least three tests
Experimental: The compounds of the present invention were also tested for anti-HIV-TAT activity in an anti-TAT assay described in co-pending patent application U.S. Ser. No. 07/428,555, filed on Oct. 30, 1989, and hereby incorporated by reference. This assay comprises the following steps:
(a) putting both the expression of the Secreted Alkaline Phosphatase (SeAP) gene and the viral transactivator TAT gene under the control of the HIV promoter LTR responsive to the action of the HIV transactivator TAT;
(b) transfecting cultured mammalian cells with plasmids which contain the gene constructs of (a) above and cause cellular production of the transactivating factor TAT and SeAP;
(c) adding the agent to be tested, here compounds of formula I; and
(d) determining the amount of SeAP produced by measuring SeAP enzymatic activity, whereby inhibition of SeAP production correlates with the anti-TAT inhibition activity.
In this assay, the inhibition of SeAP positively correlates with anti-TAT activity. The greater the ability of an agent to inhibit SeAP, the greater is its anti-TAT activity.
Specifically, with respect to the results reported below, the anti-HIV-TAT assay was run as follows: […]
determined by measuring the amount of alkaline phosphatase in […]
calculated according to the formula: […]

[2] = system: HIV-1-infected CEM-cells (strain N1T); assay: Anti-HIV effect: reduction of immunofluorescence-positive CEM cells (cell-associated viral antigens); assay type: cell-based
Experimental: (§1) Compounds were tested directly for their anti-HIV effect. The assay protocols for the inhibition of HIV-cytopathic effect and the reduction of cell-associated viral antigens were modified from published procedures (Mitsuya, et al. P.N.A.S, USA 83:1911 (1986), and Hedenskog et al., J. Med. Virol. 19:325 (I986)).
(§2) High titer virus stocks (HIV-1 NIT strain or HIV-2 uc-1 strain) were grown in CD4^+ CR10 cells in RMPI-1640 media (Gibco Laboratories) supplemented with 10% fetal calf serum and 0.1 mg/ml Gentamicin. The collected media were filtered through a 0.8 micron filter and virus isolates were concentrated 100 fold and stored at -80° C.
(§3) CD4^+ CEM cells, propagated in the same medium, were incubated for 60 minutes at 37° C. with diluted stock virus at a multiplicity of infection equal to 1 (MOI=1, approximately 1 pg p24 or 4,000 viral particles per cell). Cells were washed three times with phosphate buffered saline and resuspended in the medium at 2×10^5 cells/ml. Various quantities of the test compound in DMSO, synthesized as described above were added. Four days after infection, the number of live cells were counted by trypan blue exclusion (Mitsuya, et al. Proc. Natl. Acad. Sci. 83:1911 (1986)). At the same time, aliquots of cells were fixed with acetone and stained with antibodies from AIDS patients, followed by a second staining with fluorescein-conjugated goat anti-human IgG (Cappel). Cells stained with the fluorescent antibody were counted using a fluorescence microscope and the results were expressed as percentage of the total number of cells counted (Hedenskog et al., J. Med. Virol 19:325 (1986)).
*ID50 (μM) is the concentration of test compound that reduces the
number of immunofluorescence positive cells by 50%.

HIV = settings: body weight; cited from earlier work
viremia = settings: cited from earlier work
HIV-1-infected CEM-cells = assay: Inhibition of HIV-cytopathic effect: live cell count by trypan blue exclusion; assay type: cell-based
Experimental: as §1, §2, §3

[3] = system: Cell lines 193c, 191F and 199F; assay: Cytotoxicity by MTT assay in CHO-derived cell lines 193c, 191F and 199F; assay type: cell-based, Chinese hamster; settings: FIG. 4
Experimental: The Y-axis is (1) the percent inhibition in TAT transactivation measured according to SeAP activity in culture media (discussed infra), and (2) a measurement of cytotoxicity based on an MTT assay. The MTT assay is a known tetrazolium-based assay which measures the viability of cells. The X-axis is the concentration of compound. The solid circles, diamonds and squares represent the three different cell lines identified at the bottom of the Figure.
Compounds of formula I were also tested for anti-HIV-TAT activity with cell lines that constitutively express the SeAP gene under the control of the HIV-LTR. Cell lines 193c, 191F and 199F were derived from CHO cells (cell line of Chinese hamster ovary origin). Each line is of clonal origin and has the HIV-LTR/SeAP and the HIV-LTR/TAT sequences integrated in the cellular chromosome. One day after cells were plated (approximately 30% confluency), a compound of formula I in DMSO (0.05% final concentration) was added to the culture media at desired concentrations. The cells were washed and Compound A was replenished one day later. SeAP activity was assayed two days after the second addition of test compound. The cytotoxic effect of the compound was measured with a MTT assay, an art-recognized measurement of cytotoxicity. See Denigot et al., J. Immunol. Methods 89:271 (1986). […]

viral p24 antigen = assay: Viral p24 antigen in culture media measured by ELISA; assay type: cell-based, HIV; settings: acutely infected CEM cells, FIG. 2
Experimental: As an additional measure of anti-HIV activity, the amount of p24 antigen in the culture media was measured by ELISA (Abbott) according to the procedure described by the manufacturer. This measurement is an indication of HIV virus replication.

viral RNA = assay: Cell-associated viral RNA by RNA-RNA hybridization/reversible target capture; assay type: cell-based, HIV; settings: acutely infected CEM cells, FIG. 2
Experimental: In addition, the viral RNA in infected cells was quantified with an RNA-RNA hybridization/reversible target capture procedure [Gillespie et al. Molecular and Cellular Probes, 2:73 (1989)]. Reagents were purchased from GeneTrack System (MA, USA) and assays were carried out according to the procedure described by the manufacturers. 2×10^5 live cells, determined by trypan blue exclusion, were used in each assay.

HIV-TAT [4] = assay: Anti-HIV-TAT activity in CHO-derived cell lines constitutively expressing SeAP under HIV-LTR; assay type: cell-based; settings: FIG. 4
Experimental: Compounds of formula I were also tested for anti-HIV-TAT activity with cell lines that constitutively express the SeAP gene under the control of the HIV-LTR. Cell lines 193c, 191F and 199F were derived from CHO cells (cell line of Chinese hamster ovary origin). Each line is of clonal origin and has the HIV-LTR/SeAP and the HIV-LTR/TAT sequences integrated in the cellular chromosome. One day after cells were plated (approximately 30% confluency), a compound of formula I in DMSO (0.05% final concentration) was added to the culture media at desired concentrations. The cells were washed and Compound A was replenished one day later. SeAP activity was assayed two days after the second addition of test compound. The cytotoxic effect of the compound was measured with a MTT assay, an art-recognized measurement of cytotoxicity. See Denigot et al., J. Immunol. Methods 89:271 (1986). This assay also confirmed the specific anti-TAT activity of applicants' compounds.

[5] = Human immunodeficiency virus 1, CCRF-CEM, 96 h, concentration that reduces the number of immunofluorescence positive cells by 50%, Table I, read-out: Anti-HIV ID50

NC1=Nc2ccc(Cl)cc2C(c2ccc[nH]2)=NC1 [NH2, 7-chloro-5-(1H-pyrrol-2-yl)-3H-1,4-benzodiazepin-2-amine]
Anti-HIV-TAT Activity (% Inhibition) (HIV-TAT [1]): > 60%
IC50 [2, 5]: 1000 nM

Nc1ccn([C@H]2CC[C@@H](CO)O2)c(=O)n1 [ddC]
virustatic dose range in most patients (HIV): 5 to 250 µg/kg

Cc1cn([C@H]2C[C@H](N=[N+]=[N-])[C@@H](CO)O2)c(=O)[nH]c1=O [AZT]
elimination of viremia in patients (viremia): does not eliminate viremia in patients
drug resistance (viremia; patients): eventually the appearance of drug-resistant mutant viruses is evidenced

CNC1=Nc2ccc(Cl)cc2C(c2ccc[nH]2)=NC1 [Compound A, 7-chloro-N-methyl-5-(1H-pyrrol-2-yl)-3H-1,4-benzodiazepin-2-amine]
Anti-HIV-TAT Activity (% Inhibition) (HIV-TAT [1]): > 60%
IC50 ([2]; Human immunodeficiency virus 1, CCRF-CEM, 96 h, FIG. 1, HIV-1-infected CEM-cells (strain N1T), read-out: ID50 (the source's name)): 500 nM
IC90 ([2]; Human immunodeficiency virus 1, CCRF-CEM, 96 h, FIG. 1, HIV-1-infected CEM-cells (strain N1T), read-out: ID90 (the source's name)): 1000 nM
IC50 [2, 5]: 500 to 1000 nM
percentage of cells that are immunofluorescence-positive following staining with HIV antibodies ([2]; increasing amounts of compound, FIG. 1): decline in the percentage of cells that are immunofluorescence-positive
survival rate for the HIV-infected cells (HIV-1-infected CEM-cells; 5 μM, FIG. 1, HIV-1-infected CEM-cells): very close to that of uninfected cells
survival of HIV-infected cells with increasing concentrations (HIV-1-infected CEM-cells; FIG. 1): greater survival of HIV-infected cells
cell survival in comparison to AZT or ddC (HIV-1-infected CEM-cells; acutely infected CEM cells, FIG. 2): at least similar, and at several compound concentrations, better, cell survival than AZT or ddC
cytotoxic effect on the cells [3]: no cytotoxic effect on the cells
amount of viral p24 antigen (viral p24 antigen): dramatically reduces
amount of cell-associated viral RNA (viral RNA): dramatically reduces
inhibition of SeAP expression under the control of the HIV-LTR promoter (HIV-TAT [4]): significantly inhibits SeAP expression
